Experiments:
Wnt signaling pathway = test: Activity assay of the reporter gene (Wnt signaling pathway activation, Wnt3a conditioned medium); format: cell-based
Description: After 6 hours, the cells are collected and activities of the report genes are determined.
Activity Assay of the Reporter Gene
HEK293T, HCT116, SW480 or NIH3T3 cells used for activity assay of the reporter gene were inoculated into 24-wells plates respectively 24 hours before transfection then transfected following the above mentioned reference method. The amount of the plasmids used for Transfection was: 20 ng of TOPFlash, NFAT-Luc, or SRF-Luc, and 25 ng of EGFP-C1 (HEK293T); 25 ng of LEF-Luc, 75 ng of LEF1, and 25 ng of EGFP-C1 (NIH3T3); 100 ng of TOPFlash or Fopfllash and 100 ng of EGFP-C1 (HCT116 and SW480). The cells were transfected with other plasmids following experimental requirements, LacZs were added to meet a total content of 250 ng (in RNAi and plasmid co-transfection experiments, 1 μl of siRNA was added when every 100 ng/well of the plasmid was transfected). Wnt3a conditioned medium was added 18 hours after transfection to stimulate the cells for 6-8 hours, the cells were lysed using Boehringer Mannheim Luci-ferase Assay Kit (200 μl/well). Intensity of GFP proteins in cell lysates were determined as internal standards of expression quantity of the cells using fluorescence meter FL600 (BIO-TEK Inc. Winooski, Vt.), and then 20 μl of luciferase substrates were added. Luciferase activity was determined with Micro Lumate Plus (Perkin Elmer Inc. Wellesley, Mass.) luminometer. Finally, the luciferase activity was homogenized using activity of GFP.

Huh7.5 cells = test: in vitro
Description: (§1) (1) Toxicity Experiment of the Compound on Huh7.5:
(§2) 100 μL of Huh7.5 cells (1×10^5/ml) was inoculated in 96-wells plates and incubated in an incubator at 37° C. under 5% of CO2 and saturated humidity for 24 hrs. Then different concentration of the compound of the present invention and positive control (VX-950, telaprevir) were added respectively and incubated for a further 72 hrs. 10 μL of MTT (5 mg/mL) was added per well and incubated for another 4 hrs. After the cells were lysed with DMSO, OD570-630 […] was determined on ELIASA. In comparison with OD of the control group, inhibitory rate of each concentration on cell toxicity was calculated, and half toxic concentration of the compound was calculated with Reed-Muench method.

HCV = test: microbe, parasite or virus in culture; format: cell-based, Hepatitis C Virus (HCV); conditions: Huh7.5 cells infected with HCV, 72 hrs, intracellular HCV RNA by qRT-PCR, Reed-Muench method; read-out: EC50
Description: (2) Anti-HCV Activity of the Compound in Cells:
The total RNA was extracted from the cells. The intracellular content of HCV and RNA of internal control gene GAPDH were determined by real-time fluorescence qRT-PCR.

[1] = Toxicity experiment of the compound on Huh7.5 (MTT); conditions: human, CC50, Huh7.5 cells, 72 hrs, MTT, half toxic concentration by Reed-Muench method
Description: as §1, §2

Row | SMILES | CC50 (Huh7.5 cells) [µM] | EC50 (HCV) [µM] | other results
1 | CCc1cccc2c1N(C)Cc1cc(OCc3cn(CCN)nn3)c(OCc3cn(CCN)nn3)cc1-2 [Compound 10q, 4-ethyl-5-methyl-8,9-bis[1-(2-amino-ethyl)-1H-[1,2,3]triazol-4-ylmethoxy]-5,6-dihydro-phenanthridine] | – | – | melting point: 196 to 197 °C; activation of the reporter gene systems of classical Wnt signaling pathway (Wnt signaling pathway; in the way of depending on Wnt3a receptors): activate the reporter gene systems of classical Wnt signaling pathway; Concentration of compounds for doubly synergetic activating Wnt reporter gene (Wnt signaling pathway; reporter gene, with Wnt3a conditioned medium): 1.25 µM
2 | C=Cc1cccc2c1N(C)Cc1cc(OCc3cccc(OC)c3OC)c(OCc3cccc(OC)c3OC)cc1-2 [Compound 11f, 4-ethenyl-5-methyl-8,9-di(2,3-dimethoxy)benzyloxy-5,6-dihydro-phenanthridine] | 32.9 ± 1.28 | 0.3 ± 0.01 | –
3 | C=Cc1cccc2c1N(C)Cc1cc(OCc3ccc(C#N)cc3)c(OCc3ccc(C#N)cc3)cc1-2 [Compound 11g, 4-ethenyl-5-methyl-8,9-di(4-cyano)benzyloxy-5,6-dihydro-phenanthridine] | 25.9 ± 0.82 | > 0.37 | –
4 | C=Cc1cccc2c1N(C)Cc1cc(OC(=O)CCCC)c(OC(=O)CCCC)cc1-2 [Compound 11k, 4-ethenyl-5-methyl-8,9-divaleryoxy-5,6-dihydro-phenanthridine] | > 100 | 0.94 ± 0.02 | –
5 | C=Cc1cccc2c1N(C)Cc1cc(OC(=O)c3ccc(Br)cc3)c(OC(=O)c3ccc(Br)cc3)cc1-2 [Compound 11n, 4-ethenyl-5-methyl-8,9-di(4-bromo)benzoyloxy-5,6-dihydro-phenanthridine] | 82.6 ± 3.28 | 4.58 ± 0.55 | –
6 | CCC[C@H](NC(=O)[C@@H]1[C@H]2CCC[C@H]2CN1C(=O)[C@@H](NC(=O)[C@@H](NC(=O)c1cnccn1)C1CCCCC1)C(C)(C)C)C(=O)C(=O)NC1CC1 [VX-950, telaprevir, reference compound] | – | – | CC50 at 72 h [1]: 39.5 ± 4.9 µM; CC50 (Huh7.5 cells; Huh7.5 cells, 72 hrs, MTT, half toxic concentration by Reed-Muench method): 32.5 ± 0.58 µM

Reference: patent publication US9682954B2, “Phenanthridine derivatives, preparation methods and uses thereof” (Kunming Institute of Botany, The Chinese Academy of Sciences, priority 2013, dated 2017)
